Measurements taken from paper PMC6812009, “Covalent Aurora A regulation by the metabolic integrator coenzyme A” (Redox Biology, 2019).
Read-outs that look alike come from different tables or passages of the source.

Tests used:
[1] = target: T1, Aurora A (inactive), unphosphorylated (PP1-treated) (Homo sapiens, UniProt O14965); test: Lanthascreen Eu Kinase FRET binding assay
T1 construct: For enzyme and DSF assays, full-length human Aurora A and Aurora B and 1–43 TPX2 were produced; made in house; host or cells: E. coli
T1 sequence (O14965 1-403): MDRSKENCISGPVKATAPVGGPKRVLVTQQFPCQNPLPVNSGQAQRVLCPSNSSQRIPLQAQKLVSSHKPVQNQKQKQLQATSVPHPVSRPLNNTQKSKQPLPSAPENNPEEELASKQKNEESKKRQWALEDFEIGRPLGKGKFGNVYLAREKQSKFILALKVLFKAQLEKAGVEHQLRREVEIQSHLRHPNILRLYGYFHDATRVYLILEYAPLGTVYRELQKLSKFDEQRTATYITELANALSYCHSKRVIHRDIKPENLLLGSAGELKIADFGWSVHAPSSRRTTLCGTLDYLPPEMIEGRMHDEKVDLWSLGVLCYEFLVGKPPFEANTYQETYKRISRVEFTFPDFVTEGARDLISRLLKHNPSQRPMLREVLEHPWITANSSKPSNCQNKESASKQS
Procedure: (§1) A Lanthascreen Eu Kinase FRET Binding Assay (Invitrogen) was employed to determine IC50 values for the interaction of Aurora A with CoA, dpCoA, ATP, and ADP. […] Recombinant Aurora A was incubated with Europium-conjugated anti-histidine tag antibody and an Alexa Fluor 647-labelled tracer, which binds to the ATP binding pocket of Aurora A. The close proximity of the anti-histidine (epitope-tag) antibody and the tracer results in a high degree of FRET (fluorescence resonance energy transfer) from the europium donor fluorophore to the Alexa Fluor 647 acceptor fluorophore. ATP-competitive inhibitors, such as CoA, displace the tracer from the active site, causing a loss of FRET signal. Assay set-up was performed as described by the manufacturer. Briefly, the time-resolved fluorescence resonance energy transfer assay (TR-FRET) was performed in black, low volume 384 well plates (Corning). Each well contained 5 nM kinase, 2 nM Eu-anti-His antibody and 10 nM kinase tracer 236 in kinase buffer A (50 mM Hepes pH 7.5, 10 mM MgCl2, 1 mM […], 0.01% (v/v) Brij-35), varying amounts of CoA, dpCoA, ATP, and ADP. The reaction mix was incubated for 1h at room temperature. The signal was measured at 665/620 nm emission ratio using BMG LABTECH plate reader (PHERAstar). All assays were performed using duplicates. The 11-point response curves were generated using GraphPad Prism software from the inhibition data generated.

[2] = target: T2, Aurora A (active), T288 phosphorylated (Homo sapiens, UniProt O14965); test: Lanthascreen Eu Kinase FRET binding assay
T2 construct: For enzyme and DSF assays, full-length human Aurora A and Aurora B and 1–43 TPX2 were produced; made in house; host or cells: E. coli
T2 sequence (O14965 1-403): T1 sequence (O14965 1-403)
Procedure: as §1

[3] = system: mouse oocytes; test: Microinjection of mouse oocytes, spindle formation and chromosome alignment; type: cell-based; conditions: 17 h after GV release; for Disruption of bipolar spindle formation and chromosome alignment: injected with 3 mM compound
Procedure: Mouse oocytes arrested at the GV stage were injected with different concentrations of CoA (0.15–5 mM). Since the commercial preparation of CoA used for microinjection contained 3 mol of lithium ions per mole of CoA, control oocytes were injected with an equivalent amount of LiCl. In a separate study, oocytes were injected with 3 mM CoA, ADP, AMP, 3′-5′-ADP and pantetheine. To examine the effect of injected compounds on spindle formation, oocytes were fixed 17 h after GV release and stained for alpha-tubulin (green) and DNA (blue).

[4] = target: T3, Cys290Ala Aurora A mutant (Homo sapiens, UniProt O14965, C290A); test: In vitro CoAlation assay; type: binding
T3 construct: For enzyme and DSF assays, full-length human Aurora A and Aurora B and 1–43 TPX2 were produced; made in house; host or cells: E. coli BL21 (DE3) pLysS
T3 sequence (O14965 whole entry C290A): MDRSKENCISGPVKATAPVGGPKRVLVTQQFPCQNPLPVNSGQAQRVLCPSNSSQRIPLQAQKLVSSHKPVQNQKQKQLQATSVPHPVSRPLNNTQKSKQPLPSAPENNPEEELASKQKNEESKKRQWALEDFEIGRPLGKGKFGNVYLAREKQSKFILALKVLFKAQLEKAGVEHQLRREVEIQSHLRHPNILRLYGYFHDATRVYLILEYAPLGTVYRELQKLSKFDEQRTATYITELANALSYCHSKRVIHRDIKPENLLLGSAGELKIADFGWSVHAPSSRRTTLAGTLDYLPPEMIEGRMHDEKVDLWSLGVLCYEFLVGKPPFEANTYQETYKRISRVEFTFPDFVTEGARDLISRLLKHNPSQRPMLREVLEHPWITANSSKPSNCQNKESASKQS
Procedure: (§2) For CoAlation assays, 0.5 μg of purified recombinant preparations of wild type and mutant forms of His-Aurora A (Cys290Ala; Cys393Ala, Cys290/393Ala, Thr217Glu) and His-Aurora B (Glu161Thr) were incubated with a mixture of oxidised and reduced forms of CoA (CoASH and CoASSCoA, 1 mM final) in 20 mM Tris-HCl, pH 7.5 for 30 min at RT. The reaction was stopped by adding SDS gel-loading buffer without DTT, but containing 10 mM NEM. To examine whether binding of the 3′-phosphate ADP moiety of CoA to the Aurora A ATP binding-pocket co-ordinates the pantetheine thiol for disulfide bond formation with Cys 290, the in vitro CoAlation assay was carried out with 100 μM CoA and increasing concentrations of ATP (0–10 mM).

[5] = target: T4, wild-type Aurora A (Homo sapiens, UniProt O14965); test: In vitro CoAlation assay; type: binding
T4 construct: For enzyme and DSF assays, full-length human Aurora A and Aurora B and 1–43 TPX2 were produced; made in house; host or cells: E. coli
Procedure: as §2

[6] = target: T5, Thr217Glu mutant of Aurora A (Homo sapiens, UniProt O14965, T217E); test: In vitro CoAlation assay; type: binding
T5 construct: For enzyme and DSF assays, full-length human Aurora A and Aurora B and 1–43 TPX2 were produced; made in house; host or cells: E. coli
T5 sequence (O14965 whole entry T217E): as the sequence (O14965 whole entry C290A) above, with T217E, A290C counted along it
Procedure: as §2

[7] = target: T6, Cys290/393Ala Aurora A mutant (Homo sapiens, UniProt O14965, C290A/C393A); test: In vitro CoAlation assay; type: binding
T6 construct: made in house
T6 sequence (O14965 whole entry C290A/C393A): as the sequence (O14965 whole entry C290A) above, with C393A counted along it
Procedure: as §2

[8] = target: Aurora B (Homo sapiens, UniProt Q96GD4); test: In vitro CoAlation assay; type: binding; conditions: optimal Aurora A assay conditions
Sequence of Aurora B (Q96GD4 whole entry): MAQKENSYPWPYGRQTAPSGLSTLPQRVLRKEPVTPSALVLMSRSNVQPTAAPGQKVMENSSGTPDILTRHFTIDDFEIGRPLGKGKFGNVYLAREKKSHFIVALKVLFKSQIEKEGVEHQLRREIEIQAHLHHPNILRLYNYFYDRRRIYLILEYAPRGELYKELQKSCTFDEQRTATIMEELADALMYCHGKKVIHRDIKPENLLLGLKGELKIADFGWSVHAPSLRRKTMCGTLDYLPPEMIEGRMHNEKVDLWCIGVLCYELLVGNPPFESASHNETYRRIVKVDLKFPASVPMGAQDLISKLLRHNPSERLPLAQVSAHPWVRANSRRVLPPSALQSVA
Procedure: as §2

[9] = target: IR (Homo sapiens, UniProt P06213); test: Kinase profiling screen (radioactive filter-binding assay); type: biochemical; conditions: 100 μM compound, 20 μM ATP; read-out: Kinase activity, % of activity in the absence of inhibitor
Sequence of IR (P06213 28-1382): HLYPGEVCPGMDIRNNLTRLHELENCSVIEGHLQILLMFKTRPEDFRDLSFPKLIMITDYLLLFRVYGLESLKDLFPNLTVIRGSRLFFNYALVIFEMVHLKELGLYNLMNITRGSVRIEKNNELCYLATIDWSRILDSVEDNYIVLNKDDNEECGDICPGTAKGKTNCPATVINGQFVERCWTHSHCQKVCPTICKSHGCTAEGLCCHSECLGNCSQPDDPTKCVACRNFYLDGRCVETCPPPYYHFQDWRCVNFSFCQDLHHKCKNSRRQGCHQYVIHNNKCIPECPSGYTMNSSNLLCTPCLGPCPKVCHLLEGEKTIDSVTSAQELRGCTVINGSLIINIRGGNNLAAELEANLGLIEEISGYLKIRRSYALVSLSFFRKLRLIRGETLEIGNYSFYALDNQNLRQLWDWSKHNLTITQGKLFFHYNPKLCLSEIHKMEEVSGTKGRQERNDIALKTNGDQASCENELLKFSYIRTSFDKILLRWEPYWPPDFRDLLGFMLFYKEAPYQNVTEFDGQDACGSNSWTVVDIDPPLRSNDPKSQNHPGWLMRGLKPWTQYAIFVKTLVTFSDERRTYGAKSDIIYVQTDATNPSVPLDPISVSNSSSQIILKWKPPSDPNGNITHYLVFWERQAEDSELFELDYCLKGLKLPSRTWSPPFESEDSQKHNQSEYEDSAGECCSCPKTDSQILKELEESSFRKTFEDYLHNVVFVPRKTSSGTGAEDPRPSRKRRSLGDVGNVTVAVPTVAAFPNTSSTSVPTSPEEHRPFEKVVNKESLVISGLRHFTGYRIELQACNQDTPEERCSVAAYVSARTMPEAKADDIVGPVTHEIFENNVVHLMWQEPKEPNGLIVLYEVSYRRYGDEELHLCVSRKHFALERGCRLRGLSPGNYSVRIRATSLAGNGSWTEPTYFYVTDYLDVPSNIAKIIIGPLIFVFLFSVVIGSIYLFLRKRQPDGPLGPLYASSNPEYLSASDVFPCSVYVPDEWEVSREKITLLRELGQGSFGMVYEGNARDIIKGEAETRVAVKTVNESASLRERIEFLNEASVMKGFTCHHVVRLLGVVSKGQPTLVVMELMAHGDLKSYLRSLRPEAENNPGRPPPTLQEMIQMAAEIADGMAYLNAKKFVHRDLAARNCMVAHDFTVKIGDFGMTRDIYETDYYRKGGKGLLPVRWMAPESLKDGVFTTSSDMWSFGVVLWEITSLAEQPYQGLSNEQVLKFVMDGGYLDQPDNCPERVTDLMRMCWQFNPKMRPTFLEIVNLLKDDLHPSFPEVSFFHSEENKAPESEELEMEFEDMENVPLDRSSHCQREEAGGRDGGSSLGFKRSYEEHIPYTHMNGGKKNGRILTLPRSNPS
Outline: (§3)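 Residual kinase activity is read in duplicate wells containing 100 μM final test compound (CoA, dpCoA or ADP). Recombinant kinases use model substrates at ATP levels optimal for each enzyme, across a 117-kinase screen.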

[10] = target: TrkA (Homo sapiens, UniProt P04629); test: as above; type: biochemical; conditions: 100 μM compound, 20 μM ATP; read-out: Kinase activity, % of activity in the absence of inhibitor
Outline: as §3

[11] = target: IGF-1R (Homo sapiens, UniProt P08069); test: as above; type: biochemical; conditions: 100 μM compound, 5 μM ATP; read-out: Kinase activity, % of activity in the absence of inhibitor
Sequence of IGF-1R (P08069 31-1367): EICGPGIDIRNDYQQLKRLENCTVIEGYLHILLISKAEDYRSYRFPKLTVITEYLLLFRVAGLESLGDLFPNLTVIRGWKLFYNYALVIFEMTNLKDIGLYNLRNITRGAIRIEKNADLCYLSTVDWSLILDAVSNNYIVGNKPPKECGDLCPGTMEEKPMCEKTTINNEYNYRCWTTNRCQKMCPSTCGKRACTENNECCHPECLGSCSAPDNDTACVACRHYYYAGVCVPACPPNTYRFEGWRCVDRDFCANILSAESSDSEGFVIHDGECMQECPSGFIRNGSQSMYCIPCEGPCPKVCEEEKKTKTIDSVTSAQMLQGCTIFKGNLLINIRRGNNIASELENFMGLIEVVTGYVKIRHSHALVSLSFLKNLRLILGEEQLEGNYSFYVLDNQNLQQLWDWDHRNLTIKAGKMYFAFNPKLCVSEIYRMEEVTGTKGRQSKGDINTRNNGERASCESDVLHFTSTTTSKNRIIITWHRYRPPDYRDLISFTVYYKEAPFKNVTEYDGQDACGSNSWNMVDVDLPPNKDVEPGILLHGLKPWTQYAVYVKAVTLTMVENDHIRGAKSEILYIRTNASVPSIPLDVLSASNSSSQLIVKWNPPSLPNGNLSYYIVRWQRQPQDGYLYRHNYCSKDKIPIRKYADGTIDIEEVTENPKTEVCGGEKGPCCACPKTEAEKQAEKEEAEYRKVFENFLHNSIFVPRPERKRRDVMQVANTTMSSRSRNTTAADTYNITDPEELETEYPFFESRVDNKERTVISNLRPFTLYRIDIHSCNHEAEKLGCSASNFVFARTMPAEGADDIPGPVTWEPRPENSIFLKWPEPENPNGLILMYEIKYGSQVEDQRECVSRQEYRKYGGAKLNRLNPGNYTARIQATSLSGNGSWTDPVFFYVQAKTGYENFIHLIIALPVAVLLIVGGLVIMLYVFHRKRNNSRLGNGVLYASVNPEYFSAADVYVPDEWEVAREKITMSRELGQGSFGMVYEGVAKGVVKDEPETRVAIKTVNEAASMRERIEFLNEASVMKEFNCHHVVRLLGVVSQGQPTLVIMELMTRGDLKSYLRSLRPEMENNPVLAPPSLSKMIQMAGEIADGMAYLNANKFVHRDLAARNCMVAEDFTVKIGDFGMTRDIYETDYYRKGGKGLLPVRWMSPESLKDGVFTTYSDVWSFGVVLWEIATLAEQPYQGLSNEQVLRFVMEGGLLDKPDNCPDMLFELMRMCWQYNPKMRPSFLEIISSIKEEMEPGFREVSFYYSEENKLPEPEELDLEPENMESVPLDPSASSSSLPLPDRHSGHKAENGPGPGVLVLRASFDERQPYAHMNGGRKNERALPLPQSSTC
Outline: as §3

[12] = target: IRR (Homo sapiens, UniProt P14616); test: as above; type: biochemical; conditions: 100 μM compound, 5 μM ATP; read-out: Kinase activity, % of activity in the absence of inhibitor
Sequence of IRR (P14616 27-1297): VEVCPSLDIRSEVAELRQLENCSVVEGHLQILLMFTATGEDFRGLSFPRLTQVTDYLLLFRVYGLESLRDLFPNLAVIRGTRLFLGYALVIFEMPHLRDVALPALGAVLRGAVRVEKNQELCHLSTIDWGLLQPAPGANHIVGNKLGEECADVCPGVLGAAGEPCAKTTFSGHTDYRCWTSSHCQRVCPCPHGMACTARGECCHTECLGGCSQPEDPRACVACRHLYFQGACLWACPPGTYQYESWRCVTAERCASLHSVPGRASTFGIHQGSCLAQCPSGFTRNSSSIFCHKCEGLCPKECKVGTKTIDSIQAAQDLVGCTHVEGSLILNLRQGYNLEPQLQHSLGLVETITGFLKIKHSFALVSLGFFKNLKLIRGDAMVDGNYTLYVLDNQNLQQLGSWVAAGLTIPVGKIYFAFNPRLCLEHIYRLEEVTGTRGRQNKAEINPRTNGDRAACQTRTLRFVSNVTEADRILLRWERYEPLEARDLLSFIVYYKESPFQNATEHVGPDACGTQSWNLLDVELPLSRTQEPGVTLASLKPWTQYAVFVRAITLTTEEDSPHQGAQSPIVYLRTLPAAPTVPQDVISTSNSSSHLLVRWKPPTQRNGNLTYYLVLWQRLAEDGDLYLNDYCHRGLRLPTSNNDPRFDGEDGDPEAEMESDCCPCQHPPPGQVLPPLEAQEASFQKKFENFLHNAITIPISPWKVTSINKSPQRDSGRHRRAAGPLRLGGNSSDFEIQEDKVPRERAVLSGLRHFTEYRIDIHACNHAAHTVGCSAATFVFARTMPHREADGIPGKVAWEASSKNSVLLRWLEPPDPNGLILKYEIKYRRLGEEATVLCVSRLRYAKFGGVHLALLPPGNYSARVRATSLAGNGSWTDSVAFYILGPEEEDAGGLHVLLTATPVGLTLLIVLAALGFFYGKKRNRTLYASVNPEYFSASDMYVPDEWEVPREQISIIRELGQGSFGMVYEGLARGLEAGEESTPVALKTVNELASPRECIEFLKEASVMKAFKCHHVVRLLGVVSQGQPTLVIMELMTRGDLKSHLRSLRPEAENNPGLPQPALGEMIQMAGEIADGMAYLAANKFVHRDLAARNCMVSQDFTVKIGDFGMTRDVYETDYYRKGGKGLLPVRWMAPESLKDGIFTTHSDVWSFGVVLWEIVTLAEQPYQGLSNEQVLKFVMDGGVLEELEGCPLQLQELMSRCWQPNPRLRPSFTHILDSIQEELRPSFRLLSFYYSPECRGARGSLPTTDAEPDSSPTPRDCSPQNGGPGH
Outline: as §3

[13] = system: VEGFR; test: as above; type: biochemical, human; conditions: 100 μM compound, 20 μM ATP
Procedure: Profiling of 117 protein kinases with CoA, dpCoA and ADP was carried out at the International Centre for Protein Kinase Profiling at the University of Dundee. Each compound was tested in vitro, in duplicate, at 100 μM final concentration using recombinant kinases, model substrates and optimal concentrations of ATP. Bacterially expressed full-length His-Aurora A was used to determine the IC50 value for CoA (in the presence or absence of DTT), dpCoA, ADP and desulfo-CoA. The assay was performed in the presence of 5 μM competing ATP. To examine whether the inhibitory effect of CoA on Aurora A is modulated by TPX2, IC50 values for CoA were also generated in the presence and absence of 1 μg TPX2 (residues 1–43) fragment.

[14] = T288 phosphorylated Aurora A, read-out: Aurora A (active) IC50 (μM), binding assay

Row | Structure (SMILES) | IC50 [1] | IC50 [2, 14] | IC50 ([2]; read-out: IC50 for the interaction of active Aurora A) | Disruption of bipolar spindle formation and chromosome alignment [3] | Number of oocytes with atypical spindles and misaligned chromosomes ([3]; microinjection of 0.15–5 mM CoA, dose-dependent) | Reduction of covalent modification by CoA in comparison to wild-type Aurora A [4] | In vitro CoAlation of Aurora A [5] | CoA binding compared to the wild-type kinase [6] | Covalent modification (binding) by CoA [7] | In vitro CoAlation of Aurora B [8] | activity at 100 µM [9] | activity at 100 µM [10] | activity at 100 µM [11] | activity at 100 µM [12] | Kinase activity, % of activity in the absence of inhibitor [13]
1 | Nc1ncnc2c1ncn2C1OC(COP(=O)(O)OP(=O)(O)O)C(O)C1O (centres unmarked) [ADP] | 1.3 µM | 170 nM | ~177000 nM | not |  |  |  |  |  |  |  |  |  |  | 
2 | CC(C)(COP(=O)(O)OP(=O)(O)OC[C@H]1O[C@@H](n2cnc3c(N)ncnc32)[C@H](O)[C@@H]1OP(=O)(O)O)[C@@H](O)C(=O)NCCC(=O)NCCS [CoA, Coenzyme A] | 0.28 µM | 0.01 nM |  | disrupted both bipolar spindle formation and chromosome alignment | markedly increased | > 95% | strong CoAlation | significantly reduced CoA binding | no binding was detected | CoAlated at an extremely low level | 100% | 104% | 93% | 92% | 81.0%
3 | CC(C)(COP(=O)(O)OP(=O)(O)OCC1OC(n2cnc3c(N)ncnc32)C(O)C1O)C(O)C(=O)NCCC(=O)NCCS (centres unmarked) [dpCoA, dephospho-CoA] | > 100 µM | 0.3 nM |  |  |  |  |  |  |  |  |  |  |  |  | 
